Source: the supplement of paper PMC10307832

Columns and labels:
Experiment in all cases: relative viability (nuclei count vs DMSO), 5 days (fraction); higher = more cells survive
A-427 = test system: A-427
How it was run: (§1)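 Lung cancer cell lines were seeded in 1536-well plates and dosed by pin tool the next day, with either a single drug or a fixed anchor-drug dose combined with five library-drug doses (not always all listed) spaced in √10 steps. Five days later, one step fixed the cells and stained their nuclei (final 0.05% Triton X-100, 1% formaldehyde, 1 ug/ml Hoechst), and nuclei were counted on 4× images. Relative viability is the nuclei count in treated wells divided by the count in vehicle wells, and each value is the median of duplicate plates.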

SW 1573 = test system: SW 1573
How it was run: as §1

RERF-LC-KJ = test system: RERF-LC-KJ
How it was run: as §1

PC-3 [JPC-3] = test system: PC-3 [JPC-3]
How it was run: as §1

NCI-H460 = test system: NCI-H460
How it was run: as §1

NCI-H1734 = test system: NCI-H1734
How it was run: as §1

HOP-62 = test system: HOP-62
How it was run: as §1

SK-LU-1 = test system: SK-LU-1
How it was run: as §1

HCC-15 = test system: HCC-15
How it was run: as §1

NCI-H1755 = test system: NCI-H1755
How it was run: as §1

NCI-H647 = test system: NCI-H647
How it was run: as §1

Question: `NC(=O)Nc1cc(-c2cccc(F)c2)sc1C(=O)N[C@H]1CCCNC1` [AZD7762] + CC(C)C[C@H](NC(=O)[C@H](Cc1ccccc1)NC(=O)c1cnccn1)B(O)O [Bortezomib] (partner 0.002 µM) was tested. Which relative viability (A-427; first compound 0.01 µM) did it give?
Answer: 0.988

Question: What about the relative viability (A-427; first compound 0.03162 µM) of the same molecule?
Answer: 0.965

Question: And the relative viability (A-427; first compound 0.1 µM)?
Answer: 0.989

Question: What about the relative viability (A-427; first compound 0.3162 µM) of the same molecule?
Answer: 1.04

Question: What about the relative viability (A-427; first compound 1 µM) of the same molecule?
Answer: 0.272

Question: What about the relative viability (SW 1573; first compound 0.01 µM) of the same molecule?
Answer: 1.12

Question: And the relative viability (SW 1573; first compound 0.03162 µM)?
Answer: 1.4

Question: What about the relative viability (SW 1573; first compound 0.1 µM) of the same molecule?
Answer: 1.21

Question: What about the relative viability (SW 1573; first compound 0.3162 µM) of the same molecule?
Answer: 1.22

Question: And the relative viability (SW 1573; first compound 1 µM)?
Answer: 0.771

Question: What about the relative viability (RERF-LC-KJ; first compound 0.01 µM) of the same molecule?
Answer: 1.16

Question: And the relative viability (RERF-LC-KJ; first compound 0.03162 µM)?
Answer: 1.11

Question: And the relative viability (RERF-LC-KJ; first compound 0.1 µM)?
Answer: 1.11

Question: And the relative viability (RERF-LC-KJ; first compound 0.3162 µM)?
Answer: 1.11

Question: And the relative viability (RERF-LC-KJ; first compound 1 µM)?
Answer: 1.14

Question: What about the relative viability (PC-3 [JPC-3]; first compound 0.01 µM) of the same molecule?
Answer: 0.886

Question: What about the relative viability (PC-3 [JPC-3]; first compound 0.03162 µM) of the same molecule?
Answer: 0.88

Question: And the relative viability (PC-3 [JPC-3]; first compound 0.1 µM)?
Answer: 0.829

Question: What about the relative viability (PC-3 [JPC-3]; first compound 0.3162 µM) of the same molecule?
Answer: 0.883

Question: And the relative viability (PC-3 [JPC-3]; first compound 1 µM)?
Answer: 0.785

Question: What about the relative viability (NCI-H460; first compound 0.01 µM) of the same molecule?
Answer: 1.18

Question: And the relative viability (NCI-H460; first compound 0.03162 µM)?
Answer: 1.04

Question: What about the relative viability (NCI-H460; first compound 0.1 µM) of the same molecule?
Answer: 1.18

Question: And the relative viability (NCI-H460; first compound 0.3162 µM)?
Answer: 0.88

Question: And the relative viability (NCI-H460; first compound 1 µM)?
Answer: 0.0988

Question: And the relative viability (NCI-H1734; first compound 0.01 µM)?
Answer: 0.912

Question: What about the relative viability (NCI-H1734; first compound 0.03162 µM) of the same molecule?
Answer: 1.04

Question: What about the relative viability (NCI-H1734; first compound 0.1 µM) of the same molecule?
Answer: 0.963

Question: What about the relative viability (NCI-H1734; first compound 0.3162 µM) of the same molecule?
Answer: 0.821

Question: What about the relative viability (NCI-H1734; first compound 1 µM) of the same molecule?
Answer: 0.527

Question: And the relative viability (HOP-62; first compound 0.01 µM)?
Answer: 0.817

Question: What about the relative viability (HOP-62; first compound 0.03162 µM) of the same molecule?
Answer: 0.605

Question: What about the relative viability (HOP-62; first compound 0.1 µM) of the same molecule?
Answer: 0.491

Question: And the relative viability (HOP-62; first compound 0.3162 µM)?
Answer: 0.725

Question: And the relative viability (HOP-62; first compound 1 µM)?
Answer: 0.43

Question: And the relative viability (SK-LU-1; first compound 0.01 µM)?
Answer: 1.34

Question: And the relative viability (SK-LU-1; first compound 0.03162 µM)?
Answer: 1.05

Question: And the relative viability (SK-LU-1; first compound 0.1 µM)?
Answer: 0.853

Question: What about the relative viability (SK-LU-1; first compound 0.3162 µM) of the same molecule?
Answer: 0.36

Question: And the relative viability (SK-LU-1; first compound 1 µM)?
Answer: 0.269

Question: And the relative viability (HCC-15; first compound 0.01 µM)?
Answer: 1.01

Question: What about the relative viability (HCC-15; first compound 0.03162 µM) of the same molecule?
Answer: 0.95

Question: What about the relative viability (HCC-15; first compound 0.1 µM) of the same molecule?
Answer: 0.898

Question: And the relative viability (HCC-15; first compound 0.3162 µM)?
Answer: 0.937

Question: What about the relative viability (HCC-15; first compound 1 µM) of the same molecule?
Answer: 0.986

Question: And the relative viability (NCI-H1755; first compound 0.01 µM)?
Answer: 0.919

Question: What about the relative viability (NCI-H1755; first compound 0.03162 µM) of the same molecule?
Answer: 1.03

Question: What about the relative viability (NCI-H1755; first compound 0.1 µM) of the same molecule?
Answer: 1.05

Question: And the relative viability (NCI-H1755; first compound 0.3162 µM)?
Answer: 0.926

Question: And the relative viability (NCI-H1755; first compound 1 µM)?
Answer: 0.384

Question: And the relative viability (NCI-H647; first compound 0.01 µM)?
Answer: 1.15

Question: What about the relative viability (NCI-H647; first compound 0.03162 µM) of the same molecule?
Answer: 1.08
